From patent US20230140216A1, “COMBINATION THERAPY FOR TREATING MPS1” (GAIN THERAPEUTICS SA, priority 2020, published 2023)

Legend:
[1] = target: T1, Recombinant human α-L-iduronidase protein (Homo sapiens, UniProt P35475); test: Denaturation prevention assay in neutral pH buffer; format: biochemical; conditions: 30 µM compound, pH 7, 37° C.
T1 construct: Ala26-Pro653 with a C-terminal 10_His tag; 10xHis (C); host or cells: HEK293f (stated in b1366 for the UAB protein)
T1 sequence (P35475 26-653): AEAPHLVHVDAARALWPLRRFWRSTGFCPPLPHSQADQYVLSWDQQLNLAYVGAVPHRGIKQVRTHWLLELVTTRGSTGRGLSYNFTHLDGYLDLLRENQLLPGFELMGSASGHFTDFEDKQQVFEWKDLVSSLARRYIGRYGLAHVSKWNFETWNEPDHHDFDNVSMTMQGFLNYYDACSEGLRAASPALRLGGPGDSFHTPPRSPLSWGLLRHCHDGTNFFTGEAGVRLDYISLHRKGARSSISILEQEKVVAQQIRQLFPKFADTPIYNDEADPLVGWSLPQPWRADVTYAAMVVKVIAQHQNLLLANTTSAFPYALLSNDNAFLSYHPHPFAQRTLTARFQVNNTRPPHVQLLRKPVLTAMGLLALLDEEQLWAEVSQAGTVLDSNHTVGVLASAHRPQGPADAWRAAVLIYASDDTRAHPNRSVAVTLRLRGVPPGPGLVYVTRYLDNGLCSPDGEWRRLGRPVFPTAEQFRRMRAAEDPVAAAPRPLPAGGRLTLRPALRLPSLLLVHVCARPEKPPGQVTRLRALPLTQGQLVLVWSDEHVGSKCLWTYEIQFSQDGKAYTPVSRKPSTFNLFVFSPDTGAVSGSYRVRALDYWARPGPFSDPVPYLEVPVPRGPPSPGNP
Procedure: The capacity of Compounds of the Disclosure to stabilize α-L-iduronidase in neutral pH buffer was assessed using the denaturation prevention assay.
Briefly, recombinant human α-L-iduronidase protein (obtained in the Institute of Biotechnology and Biomedicine in the UAB, Bellaterra, Spain) was combined at a final concentration of 1 µM with 5X of SYPRO Orange and 30 µM of the corresponding compound in a final reaction volume of 25 µL in 100 mM Hepes 20 mM MgCl2 pH 7 buffer. Reactions were incubated at 37° C. and SYPRO Orange fluorescence intensity was monitored at the indicated time points using Glomax® Discover Microplate Reader from Promega (Madison, WI, USA).
The compound referred to as Compound A throughout this specification is the compound of Example 8 described above. […] (T=37° C.).

[2] = target: T2, Recombinant human α-L-iduronidase protein IDUA (Homo sapiens, UniProt P35475); test: IDUA inhibition assay; format: biochemical; conditions: 4-MU alpha-L-iduronide substrate, pH 3.5, even at high concentrations
T2 construct: Ala26-Pro653 with a C-terminal 10_His tag; 10xHis (C); host or cells: HEK293f
T2 sequence (P35475 26-653): T1 sequence (P35475 26-653)
Procedure: The ability of Compound of the Disclosure to inhibit IDUA was assessed by the assay described below.
Recombinant human α-L-iduronidase protein IDUA PR_06_WT_X (obtained in the Institute of Biotechnology and Biomedicine in the UAB, Bellaterra, Spain) was prepared at the desired concentration in PBS:
Recombinant Human IDUA. HEK293f. Ala26-Pro653 with a C-terminal 10_His tag. Protein buffer: 40 mM sodium acetate, 400 mM NaCl and 20% glycerol, pH=5. Produced by PPP IBB UAB.
The activity assay (3 replicates of each sample) included the following procedures:
In dark 96-well plates compatible with fluorometer: • 1) 25 µL of Recombinant protein or PBS (in blank samples); • 2) 1 µL CO (50X concentrate, made in an intermediate plate) or DMSO for the untreated samples; • 3) 25 µL of 200 µM substrate solution (from a stock solution of 20 mM of substrate in DMSO), 4-Methylumbelliferyl alpha-L-iduronide (Glycosynth, 44076) in 0,4 M sodium formate, pH 3,5, and 0,2% triton; • 4) Mix (shaker); • 5) 37° C. 60 min; • 6) Stop the reaction by adding 200 µL of 0,5 M Glycine / 0,3 M NaOH, pH=10; and • 7) Read Fluorescence at Ex/Em: 340/460 nm.

[3] = target: T3, Aldurazyme (laronidase) IDUA activity in bone joint cartilage (Homo sapiens, UniProt P35475); test: IDUA assay in bone joint cartilage after i.v. Aldurazyme with or without compound; format: in vivo, C57BL/6 male mice; conditions: mice, compound i.v. + Aldurazyme 1.2 mg/kg i.v.
T3 construct: purchased Aldurazyme; host or cells: administered i.v. to C57BL/6 male mice
T3 sequence (P35475 26-653 limits assumed): T1 sequence (P35475 26-653)
Procedure: Evaluation of IDUA activity in mouse bone joint cartilage samples obtained from BIO-PCY-19-025 study, where C57BL/6 male mice were administered with 1.2 mg/kg Aldurazyme (i.v. bolus administration) in the presence and absence of Compound A.
Groups Details: • G1: Vehicle 2 +Aldurazyme (1.2 mg/kg,i.v.,) QD×1(n=6) [vehicle 2:NMP (5%) + Solutol HS-15 (5%) + Normal saline (45%) + PEG-400 (45%)]; • G2: Compound A (5 mg/kg, i.v.) + Aldurazyme (1.2 mg/kg, i.v.) QD x 1 (n=6); • G3: Compound A (10 mg/kg, i.v.) + Aldurazyme (1.2 mg/kg, i.v.) QD x 1 (n=6); • G4: Compound A (20 mg/kg, i.v.) + Aldurazyme (1.2 mg/kg, i.v.) QD x 1 (n=6); and • G5: Naïve Control (n=6).
Bone joint cartilage samples from mice were collected at indicated time points. Tissues were homogenized in RIPA buffer, protein was extracted was diluted in water. Total protein was estimated using Bradford reagent. 25 µl of tissue homogenate and plasma samples were added to 25 µl of 0.18 mM of 4 MUI substrate and incubated at 37° C. for 30 min. Reaction was terminated using 200 µl of stop solution (0.3 M Glycine and 0.2 M sodium carbonate, pH 10.4). Plate was read at excitation 355 nm and emission 460 nm. […]
IDUA activity was assessed from 4-MU standard curve. […] Final IDUA enzyme activity was expressed as nmols/mg of protein/hr. Data was analyzed using GraphPad prism software with one way ANOVA followed by Dunnett’s comparison test. […]

CCN(CC(=O)Nc1c(Cl)cccc1Cl)Cc1nc2ccsc2c(=O)[nH]1 [Compound A]
prevention of pH-induced IDUA denaturation [1]: slows down pH-induced denaturation
inhibition of IDUA enzymatic activity [2]: does not inhibit human IDUA
IDUA enzymatic activity in bone joint cartilage [3]: increases IDUA enzymatic activity in a panel of tissues
